Legend:
[1] = tested on: Human diffuse large B-cell lymphoma cell line: TMD8; test: Half inhibitory concentration (IC50) against tumor cells, CCK-8 cell viability; format: cell-based; conditions: 96 h treatment
Protocol: (§1) The tumor cells used herein were cultured in a cell culture medium listed in table 2 at 37° C. in an incubator with 5% CO2. Prior to experimentation, all cells used were correctly identified by STR profiling, and tested negative for mycoplasma through routine screenings. [table] Determination of Half Inhibitory Concentration (IC50) of the Compounds Against Tumor Cells: IC50 values of the compounds of the present disclosure (including the compounds in Table 1, and compounds of examples 1-104) were measured using the Meilun Cell Counting Kit-8 kit from Dalian Meilun Biotech Co., Ltd. Assay details are as follows: tumor cells were seeded in a 96-well plate at a density listed in Table 3. After 24 h, 100 μL of the inoculated cells were treated with 0.5 μl of the compounds of the present disclosure (including the compounds in Table 1, and compounds of examples 1-104) at 10 different successively decreasing concentrations (starting at the highest concentration of […]; 5-fold serial dilutions). After the cells were treated with the compounds of the present disclosure for a period of time, cell viability was measured according to the instructions provided with the CCK-8 kit. DMSO served as the negative control, and corresponding commercial immunomodulatory drug Avadomide (CC-122) was used as the positive control, both of which treated the cells using the same protocol as that of the compounds of the present disclosure. The growth inhibition of the compounds of the present disclosure on cells was plotted by Prism Graphpad software, and the IC50 values of the compounds of the present disclosure were calculated therefrom. [table] We tested the activities of the compounds of the present invention (including the compounds in Table 1 and Examples 1-104 compounds) in tumor cells through a dose-dependent manner. The cells were treated with the compounds of the present invention at 10 different successively decreasing concentrations (starting at the highest concentration of 10 μM; 5-fold serial dilutions) for 72 h or 96 h, and then the cell viability determination was performed in accordance with CCK-8 reagent operating instructions.

[2] = tested on: Human multiple myeloma cells: MM.1S; test: as above; format: cell-based; conditions: MM1.S, MM.1S cells, 72 h treatment
Protocol: as §1

[3] = molecular target: human Cereblon WT GST-tagged protein (Homo sapiens (Human), UniProt Q96SW2); test: CRBN-binding affinity, CEREBLON BINDING kit (HTRF); conditions: HTRF inhibitory activity, binding to CRBN
Chain of human Cereblon WT GST-tagged protein (Q96SW2 whole entry): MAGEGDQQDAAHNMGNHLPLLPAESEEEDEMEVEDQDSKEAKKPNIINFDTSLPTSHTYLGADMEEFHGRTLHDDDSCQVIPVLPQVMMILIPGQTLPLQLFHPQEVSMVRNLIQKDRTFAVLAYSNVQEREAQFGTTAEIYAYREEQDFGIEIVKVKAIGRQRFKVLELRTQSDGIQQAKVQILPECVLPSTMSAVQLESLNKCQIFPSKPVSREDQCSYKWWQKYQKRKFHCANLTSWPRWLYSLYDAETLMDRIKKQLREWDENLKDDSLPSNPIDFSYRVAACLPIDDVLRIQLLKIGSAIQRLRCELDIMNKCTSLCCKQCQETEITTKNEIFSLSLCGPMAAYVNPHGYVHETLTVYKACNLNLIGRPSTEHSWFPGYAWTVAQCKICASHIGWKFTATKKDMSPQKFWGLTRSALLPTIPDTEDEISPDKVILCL
Text: Determination of CRBN-Binding Affinity of Compounds
The CEREBLON BINDING kits (specification: 10,000 tests; product number: Catalog #64BDCRBNPEH; CISBIO company) was used to determine the CRBN binding ability of the compounds to be tested through a HTRF method (homogeneous time-resolved fluorescence). The specific methods are as follows: • 1. According to the instructions of the CEREBLON BINDING kits, the compounds to be tested of the present invention and lenalidomide were serially diluted using diluent #9 (1×) solution to obtain a final concentration of 2 μM for both the tested compounds and lenalidomide solution. • 2.2.5 μL of the above 2 μM of the tested compounds and lenalidomide solution, as well as the same volume of diluent #9 (1×) solution (solvent control group, Std0) were taken and added to each well of a 96-well plate, respectively. Then, 2.5 μL of (human Cereblon WT GST-tagged protein) solution was added to each well. Finally, 5 μL of the uniformly mixed thalidomide-Red reagent and GST Eu antibody working solution were added to each of the above wells. The final concentration of the tested compounds and lenalidomide in each well is 0.5 μM. • 3. The blank control wells were sequentially added with 2.5 μL of diluent #9 (1×) solution, 2.5 μL of PROTAC binding buffer, and 5 μL of uniformly mixed thalidomide-Red reagent and GST Eu antibody working solution. • 4. After sealing and incubating the solutions in the above wells at room temperature for 3 hours, the absorbance values at emission wavelengths of 620 nm and 665 nm were detected by the HTRF method using a Spark microplate reader (V3.1 SP1).
The corresponding CRBN binding inhibition rate was calculated using the following method: […]
Note: OD 665 nmcompound is the absorbance value of each well of the compounds to be tested of the present disclosure at an emission wavelength of 665 nm.
OD 620 nmcompound is the absorbance value of each well of the compounds to be tested of the present disclosure at an emission wavelength of 620 nm.
OD 665 nmcontrol is the absorbance value of the blank control well at an emission wavelength of 665 nm.
OD 620 nmcontrol is the absorbance value of the blank control well at an emission wavelength of 620 nm.
OD 665 nmstd0 is the absorbance value of the solvent control well at an emission wavelength of 665 nm.
OD 620 nmstd0 is the absorbance value of the solvent control well at an emission wavelength of 620 nm.

[4] = tested on: Human dexamethasone-resistant multiple myeloma cell line: MM.1R; test: Half inhibitory concentration (IC50) against tumor cells, CCK-8 cell viability; format: cell-based; conditions: MM.1R cells, 72 h treatment
Protocol: as §1

[5] = tested on: Human colon cancer cell: SW620; test: as above; format: cell-based; conditions: SW-620, 96 h treatment
Protocol: as §1

Row | SMILES | IC50 [1] [nM] | IC50 [2] [nM] | IC50 [3] [nM] | IC50 [4] [nM] | IC50 [5] [nM]
1 | Cc1nc2cccc(NCCCCNC34CC5CC(CC(C5)C3)C4)c2c(=O)n1C1CCC(=O)NC1=O (stereo not shown) [GT-01818, 3-(5-((4-(((3s,5s,7s)-adamantan-1-yl)amino)butyl)amino)-2-methyl-4-oxoquinazolin-3(4H)-yl)piperidine-2,6-dione] | 554 |  |  |  | 
2 | Cc1nc2cccc(NCCCCCCNC34CC5CC(CC(C5)C3)C4)c2c(=O)n1C1CCC(=O)NC1=O (stereo not shown) [GT-02235, 3-(5-((6-(((3s,5s,7s)-adamantan-1-yl)amino)hexyl)amino)-2-methyl-4-oxoquinazolin-3(4H)-yl)piperidine-2,6-dione] | 146 | 39.5 |  |  | 
3 | Cc1nc2cccc(NCCCCCCCNC34CC5CC(CC(C5)C3)C4)c2c(=O)n1C1CCC(=O)NC1=O (stereo not shown) [GT-02237, 3-(5-((7-(((1s,3s)-adamantan-1-yl)amino)heptyl)amino)-2-methyl-4-oxoquinazolin-3(4H)-yl)piperidine-2,6-dione] | 8.2 | 3.3 | 950 |  | 
4 | Cc1nc2cccc(NCCOCCOCCNC34CC5CC(CC(C5)C3)C4)c2c(=O)n1C1CCC(=O)NC1=O (stereo not shown) [GT-02279, 3-(5-((2-(2-(2-(((1s,3s)-adamantan-1-yl)amino)ethoxy)ethoxy)ethyl)amino)-2-methyl-4-oxoquinazolin-3(4H)-yl)piperidine-2,6-dione] | 438 |  |  |  | 
5 | Cc1nc2cccc(NCCCCCNC34CC5CC(CC(C5)C3)C4)c2c(=O)n1C1CCC(=O)NC1=O (stereo not shown) [GT-02280, 3-(5-((5-(((3s,5s,7s)-adamantan-1-yl)amino)pentyl)amino)-2-methyl-4-oxoquinazolin-3(4H)-yl)piperidine-2,6-dione] | 409 |  |  |  | 
6 | Cc1nc2cccc(NCCCCCNC(=O)C34CC5CC(CC(C5)C3)C4)c2c(=O)n1C1CCC(=O)NC1=O (stereo not shown) [GT-02323, (3r,5r,7r)-N-(5-((3-(2,6-dioxopiperidin-3-yl)-2-methyl-4-oxo-3,4-dihydroquinazolin-5-yl)amino)pentyl)adamantane-1-carboxamide] | 652 |  |  |  | 
7 | Cc1nc2cccc(NCCCCCNC3C4CC5CC(C4)CC3C5)c2c(=O)n1C1CCC(=O)NC1=O (stereo not shown) [GT-02393, 3-(5-((5-(((1r,3r,5r,7r)-adamantan-2-yl)amino)pentyl)amino)-2-methyl-4-oxoquinazolin-3(4H)-yl)piperidine-2,6-dione] | 458 |  | 420 |  | 
8 | Cc1nc2cccc(NCCCCCCNC34CC5CC(CC3C5)C4)c2c(=O)n1C1CCC(=O)NC1=O [GT-02494, 3-(5-((6-(((2R,3as,5S,6as)-hexahydro-2,5-methanopentalen-3a(1H)-yl)amino)hexyl)amino)-2-methyl-4-oxoquinazolin-3(4H)-yl)piperidine-2,6-dione] | 184 |  | 460 |  | 
9 | Cc1nc2cccc(NCCCCCCCNC34CC5CC(CC3C5)C4)c2c(=O)n1C1CCC(=O)NC1=O (stereo not shown) [GT-02495, 3-(5-((7-(((3as,6as)-hexahydro-2,5-methanopentalen-3a(1H)-yl)amino)heptyl)amino)-2-methyl-4-oxoquinazolin-3(4H)-yl)piperidine-2,6-dione] | 21.4 |  | 320 | 9.8 | 
10 | Cc1nc2cccc(NCCCCCNC34CC5CC(CC3C5)C4)c2c(=O)n1C1CCC(=O)NC1=O [GT-02496, 3-(5-((5-(((2R,3as,5S,6as)-hexahydro-2,5-methanopentalen-3a(1H)-yl)amino)pentyl)amino)-2-methyl-4-oxoquinazolin-3(4H)-yl)piperidine-2,6-dione] | 474 |  | 420 |  | 
11 | Cc1nc2cccc(NCCCCCCCO)c2c(=O)n1C1CCC(=O)NC1=O (stereo not shown) [GT-02598, 3-(5-((7-hydroxyheptyl)amino)-2-methyl-4-oxoquinazolin-3(4H)-yl)piperidine-2,6-dione] |  | 17.2 | 3660 |  | 
12 | Cc1nc2cccc(NCCCCCCCN[C@@]34CC5CC(C)(C[C@@](C)(C5)C3)C4)c2c(=O)n1C1CCC(=O)NC1=O (stereo partly drawn) [GT-02767, 3-(5-((7-(((1SR,3RS,5SR,7r)-3,5-dimethyladamantan-1-yl)amino)heptyl)amino)-2-methyl-4-oxoquinazolin-3(4H)-yl)piperidine-2,6-dione] | 309 | 69.9 | 1050 |  | 
13 | Cc1nc2cccc(NCCCCCCCNC(C)C34CC5CC(CC(C5)C3)C4)c2c(=O)n1C1CCC(=O)NC1=O (stereo not shown) [GT-02768, 3-(5-((7-((1-((3r,5r,7r)-adamantan-1-yl)ethyl)amino)heptyl)amino)-2-methyl-4-oxoquinazolin-3(4H)-yl)piperidine-2,6-dione] | 294 | 98.1 | 680 |  | 
14 | Cc1nc2cccc(NCCCCCCCN3CC4CC4C3)c2c(=O)n1C1CCC(=O)NC1=O (stereo not shown) [GT-02772, 3-(5-((7-(3-azabicyclo[3.1.0]hexan-3-yl)heptyl)amino)-2-methyl-4-oxoquinazolin-3(4H)-yl)piperidine-2,6-dione] | 448 |  |  |  | 
15 | Cc1nc2cccc(NCCCCCCCN3CCC4(CC3)CC(F)(F)C4)c2c(=O)n1C1CCC(=O)NC1=O (stereo not shown) [GT-02773, 3-(5-((7-(2,2-difluoro-7-azaspiro[3.5]nonan-7-yl)heptyl)amino)-2-methyl-4-oxoquinazolin-3(4H)-yl)piperidine-2,6-dione] | 440 |  | 2800 |  | 
16 | Cc1nc2cccc(NCCCCCCCNC34CCC(F)(CC3)CC4)c2c(=O)n1C1CCC(=O)NC1=O (stereo not shown) [GT-02774, 3-(5-((7-((4-fluorobicyclo[2.2.2]octan-1-yl)amino)heptyl)amino)-2-methyl-4-oxoquinazolin-3(4H)-yl)piperidine-2,6-dione] | 102 |  | 2610 |  | 
17 | Cc1nc2cccc(CCCCCCCCNC34CC5CC(CC(C5)C3)C4)c2c(=O)n1C1CCC(=O)NC1=O (stereo not shown) [GT-02797, 3-(5-(8-(((1s,3s)-adamantan-1-yl)amino)octyl)-2-methyl-4-oxoquinazolin-3(4H)-yl)piperidine-2,6-dione] | 312 |  | 180 |  | 
18 | Cc1nc2cccc(SCCN3CCN(CCC45CC6CC(CC(C6)C4)C5)CC3)c2c(=O)n1C1CCC(=O)NC1=O (stereo not shown) [GT-03305, 3-(5-((2-(4-(2-((3r,5r,7r)-adamantan-1-yl)ethyl)piperazin-1-yl)ethyl)thio)-2-methyl-4-oxoquinazolin-3(4H)-yl)piperidine-2,6-dione] |  |  | 1200 |  | 717
19 | Cc1nc2cccc(SCCN3CCN(c4ccc(C#N)cc4F)CC3)c2c(=O)n1C1CCC(=O)NC1=O (stereo not shown) [GT-03314, 4-(4-(2-((3-(2,6-dioxopiperidin-3-yl)-2-methyl-4-oxo-3,4-dihydroquinazolin-5-yl)thio)ethyl)piperazin-1-yl)-3-fluorobenzonitrile] |  |  |  |  | 709
20 | Cc1cc2cccc(NCCN3CCN(C(c4ccc(F)cc4)c4ccc(F)cc4)CC3)c2c(=O)n1C1CCC(=O)NC1=O (stereo not shown) [GT-03388, 3-(8-((2-(4-(bis(4-fluorophenyl)methyl)piperazin-1-yl)ethyl)amino)-3-methyl-1-oxoisoquinolin-2(1H)-yl)piperidine-2,6-dione] |  |  |  | 352 | 
